The source of these data is patent US10918106B2, “Methods for hydraulic enhancement of crops” (Sound Agriculture Company, priority 2015, dated 2021).

Holding throughout (assay type): in vivo
Test [1] concerns tested plant. Kind of test: Hydraulic enhancement test of plant growth regulators (gibberellins, cytokinins). To be noted: for hydraulic enhancement by gibberellins: FIG. 16. As to the method: Specific combinations of plant growth regulators (PGRs) were used for hydraulic enhancement and increased harvest yield of crops. PGRs were tested to be co-applied with strigolactones and/or AB compounds (e.g., AB01). PGRs were also tested in the absence of strigolactones and/or AB compounds. […] PGRs were tested as a seed treatment, soil drench, granule formulation, or foliar spray. […] In another experiment, the effect of hydraulic enhancement was also tested with cytokinins, including kinetin, zeatin, 6-benzylaminopurine (6-BAP), diphenylurea, thidiazuron, and their chemical derivatives and analogs.

For test [2], the system named is corn (Zea mays) seedlings. Kind of test: ex vivo hydraulic enhancement (xVHS) transpiration assay. As to the method: In this assay with corn (Zea mays), seedlings were grown in defined potting soil (in this case, Sunshine Mix #4) for 2 weeks until they were approximately 15 to 20 centimeters tall. Seedlings were then cut at the base of the stem and placed in individual tubes with defined volume of water (FIG. 4A). Hydraulic enhancing chemistry (for example, AB01) was present in the defined volume of water at various concentrations. Excised seedlings were placed in a defined temperature and humidity environment under continuous illumination, and water use was measured after 12, 18, or 24 hours. Using this assay, chemistry or other inputs that induce hydraulic enhancement can be tested and discovered. In this assay, 100 ng of AB01 in acetone was added to 2 week old corn seedlings and water use was monitored over 24 hours.

The subject of test [3] is plant. The test is described as follows: Hydraulic enhancement test of ABA biosynthesis inhibitor fluridone. Particulars: fluridone 1 μg (FIG. 15). The protocol:
Using this discovery, it could be reasoned that addition of inhibitors of ABA biosynthesis would result in increased hydraulic enhancement. In another experiment, fluridone was tested for its effect in hydraulic enhancement. Fluridone is an inhibitor of the phytoene destaturase, which is an upstream step in the synthesis of abscisic acid.

Entries after “also recorded” stand apart in the source; their conditions may differ.

For the compound `c1ccc(CNc2ncnc3nc[nH]c23)cc1` [6-BAP, 6-benzylaminopurine], in test [1] (1 μg (FIG. 17)), the “hydraulic enhancement by cytokinin” value is on record as “improved hydraulic enhancement; also recorded: elicit hydraulic enhancement”. In the case of `CC1=CC(Oc2c(C)occc2=O)OC1=O` (stereo not drawn) [AB09, 2-methyl-3-((4-methyl-5-oxo-2,5-dihydrofuran-2-yl)oxy)-4H-pyran-4-one], the increase in transpiration in test [2] (10Ong added to the xVHS assay (FIG. 12)) is on record as 40%. The “ability to induce hydraulic enhancement” value in test [2] (screen of AB compounds/strigolactones (FIG. 12)) was “able to induce hydraulic enhancement; also recorded: resulted in hydraulic enhancement of crop plants”. Turning to `C=C1C[C@]23C[C@@]1(O)CC[C@H]2[C@@]12CC[C@H](O)[C@@](C)(C(=O)O1)[C@H]2[C@@H]3C(=O)O` [GA1], the “hydraulic enhancement by gibberellins” value in test [1] is reported as “hydraulic enhancement was elicited”. Still for that read-out and setting: to `C=C1C[C@]23C[C@@]1(O)CC[C@H]2[C@@]12C=C[C@H](O)[C@@](C)(C(=O)O1)[C@H]2[C@@H]3C(=O)O` [GA3] belongs “hydraulic enhancement was elicited”; to `C=C1C[C@]23C[C@H]1CC[C@H]2[C@@]12CC[C@H](O)[C@@](C)(C(=O)O1)[C@H]2[C@@H]3C(=O)O` [GA4], “hydraulic enhancement was elicited”; to `C=C1C[C@]23C[C@H]1CC[C@H]2[C@@]12C=C[C@H](O)[C@@](C)(C(=O)O1)[C@H]2[C@@H]3C(=O)O` [GA7], “hydraulic enhancement was elicited”. For `CC1=CC(=O)CC(C)(C)[C@@]1(O)/C=C/C(C)=C\C(=O)O` [abscisic acid], in test [2] (addition of abscisic acid (FIG. 14)), the “effect on hydraulic enhancement in the xVHS assay” value is recorded as “inhibited hydraulic enhancement; also recorded: reduce the hydraulic enhancement”. In the case of `CC1CC23CC1CCC2C1(C)CCCC(C)(C)C1C3C` (stereo not drawn) [ent-gibberellane], in test [1], the “hydraulic enhancement by gibberellins” value was “hydraulic enhancement was elicited”.

Consider `C=C1C[C@@]23CC[C@@H]4C(C)(C)CCC[C@@]4(C)[C@@H]2CC[C@@H]1C3` [ent-kaurene], for which the “hydraulic enhancement by gibberellins” value in test [1] is listed as “hydraulic enhancement was elicited”. Take `C=C1C[C@]23C[C@@]1(O)CC[C@H]2[C@@]12C=C[C@H](O)[C@@](C)(C(=O)O1)[C@H]2[C@@H]3C(=O)O` [gibberellic acid]: the “hydraulic enhancement by gibberellins” value in test [1] is reported as “improved hydraulic enhancement”.

As for fluridone, in test [3], the “effect on hydraulic enhancement” value is recorded as “improved hydraulic enhancement; also recorded: increase hydraulic enhancement”.
